Where two headings read alike, the source gives them in different places.
System: patients with locally advanced or metastatic solid tumors
Text: This was a Phase Ib, multicenter, open-label, dose-finding clinical trial (NCT02610075). […] Three types of treatment schedules were investigated: cohorts bid 1, bid 2, qd 1.1, qd 2.1 and qd 3.1 received bid or qd treatment on a 5/9 schedule (5 days on treatment, followed by 9 days off) on a 14-day cycle. Cohorts qd 1.2, qd 2.2, and qd 3.2 received treatment on a 5/2 schedule (5 days on followed by 2 days off for 2 of 3 weeks) in a 21-day cycle. Cohorts qd 2.3 and qd 3.3 received treatment on a weekly 5/2 schedule in a 21-day cycle (Table 1). The highest dose level(s) at which less than one-third of evaluable patients (none of 3 patients or 1 of 6 patients) experienced a dose-limiting toxicity (DLT) was declared the MTD.
The per protocol analysis set was defined as a subset of the full analysis set, excluding subjects having an important protocol deviation, to be used for analyses of efficacy endpoints if appropriate.

`C=CCn1c(=O)c2cnc(Nc3ccc(N4CCN(C)CC4)cc3)nc2n1-c1cccc(C(C)(C)O)n1` [adavosertib, Adavosertib] was tested, and the “Treatment-related SAE: pneumonia” value (all cohorts (N=62)) was 2 [3.2%] n [%], the “Treatment-related SAE: thrombocytopenia” value (all cohorts (N=62)) was 1 [1.6%] n [%] and the “Abdominal pain (treatment-emergent AE)” value (bid 2: 150 mg bid 5/9 (n=6)) was 1 (16.7) n (%). For the same molecule, the “Abdominal pain (treatment-related AE)” value (bid 2: 150 mg bid 5/9 (n=6)) was 0 n (%), the “Alanine aminotransferase increased (treatment-emergent AE)” value (from here on “Alanine aminotransferase increased”) (bid 2: 150 mg bid 5/9 (n=6)) was 0 n (%) and the “Anemia (treatment-emergent AE)” value (bid 2: 150 mg bid 5/9 (n=6)) was 1 (16.7) n (%). For the same molecule, the “Anemia (treatment-related AE)” value (bid 2: 150 mg bid 5/9 (n=6)) was 1 (16.7) n (%), the “Any AE (treatment-emergent)” value (bid 2: 150 mg bid 5/9 (n=6)) was 6 (100) n (%) and the “Any grade ≥ 3 AE” value (bid 2: 150 mg bid 5/9 (n=6)) was 5 (83.3) n (%). The “Any treatment-related AE” value (bid 2: 150 mg bid 5/9 (n=6)) was 6 (100) n (%), the “Any treatment-related grade ≥ 3 AE” value (bid 2: 150 mg bid 5/9 (n=6)) was 3 (50.0) n (%) and the “Asthenia (treatment-emergent AE)” value (bid 2: 150 mg bid 5/9 (n=6)) was 1 (16.7) n (%). For the same molecule, the “Asthenia (treatment-related AE)” value (bid 2: 150 mg bid 5/9 (n=6)) was 0 n (%), the “Back pain (treatment-emergent AE)” value (bid 2: 150 mg bid 5/9 (n=6)) was 2 (33.3) n (%) and the “Constipation (treatment-emergent AE)” value (bid 2: 150 mg bid 5/9 (n=6)) was 2 (33.3) n (%). For the same molecule, the “Constipation (treatment-related AE)” value (bid 2: 150 mg bid 5/9 (n=6)) was 1 (16.7) n (%), the “Cough (treatment-emergent AE)” value (bid 2: 150 mg bid 5/9 (n=6)) was 1 (16.7) n (%) and the “Decreased appetite (treatment-emergent AE)” value (bid 2: 150 mg bid 5/9 (n=6)) was 2 (33.3) n (%). For the same molecule, the “Decreased appetite (treatment-related AE)” value (bid 2: 150 mg bid 5/9 (n=6)) was 2 (33.3) n (%), the “Dehydration (treatment-emergent AE)” value (bid 2: 150 mg bid 5/9 (n=6)) was 4 (66.7) n (%) and the “Dehydration (treatment-related AE)” value (bid 2: 150 mg bid 5/9 (n=6)) was 4 (66.7) n (%). The “Diarrhea (treatment-emergent AE)” value (bid 2: 150 mg bid 5/9 (n=6)) was 5 (83.3) n (%), the “Diarrhea (treatment-related AE)” value (bid 2: 150 mg bid 5/9 (n=6)) was 5 (83.3) n (%) and the “Dizziness (treatment-emergent AE)” value (bid 2: 150 mg bid 5/9 (n=6)) was 1 (16.7) n (%). The “Dyspepsia (treatment-emergent AE)” value (bid 2: 150 mg bid 5/9 (n=6)) was 1 (16.7) n (%), the “Dyspepsia (treatment-related AE)” value (bid 2: 150 mg bid 5/9 (n=6)) was 1 (16.7) n (%) and the “Dyspnea (treatment-emergent AE)” value (bid 2: 150 mg bid 5/9 (n=6)) was 2 (33.3) n (%). The “Edema peripheral (treatment-emergent AE)” value (bid 2: 150 mg bid 5/9 (n=6)) was 1 (16.7) n (%), the “Fall (treatment-emergent AE)” value (bid 2: 150 mg bid 5/9 (n=6)) was 1 (16.7) n (%) and the “Fatigue (treatment-emergent AE)” value (bid 2: 150 mg bid 5/9 (n=6)) was 5 (83.3) n (%). The “Fatigue (treatment-related AE)” value (bid 2: 150 mg bid 5/9 (n=6)) was 4 (66.7) n (%), the “Headache (treatment-emergent AE)” value (bid 2: 150 mg bid 5/9 (n=6)) was 1 (16.7) n (%) and the “Hypokalemia (treatment-emergent AE)” value (bid 2: 150 mg bid 5/9 (n=6)) was 1 (16.7) n (%). The “Insomnia (treatment-emergent AE)” value (bid 2: 150 mg bid 5/9 (n=6)) was 1 (16.7) n (%), the “Muscle spasms (treatment-emergent AE)” value (bid 2: 150 mg bid 5/9 (n=6)) was 0 n (%) and the “Myalgia (treatment-emergent AE)” value (bid 2: 150 mg bid 5/9 (n=6)) was 0 n (%). For the same molecule, the “Myalgia (treatment-related AE)” value (bid 2: 150 mg bid 5/9 (n=6)) was 0 n (%), the “Nausea (treatment-emergent AE)” value (bid 2: 150 mg bid 5/9 (n=6)) was 3 (50.0) n (%) and the “Nausea (treatment-related AE)” value (bid 2: 150 mg bid 5/9 (n=6)) was 3 (50.0) n (%). For the same molecule, the “Neutropenia (treatment-emergent AE)” value (bid 2: 150 mg bid 5/9 (n=6)) was 2 (33.3) n (%), the “Neutropenia (treatment-related AE)” value (bid 2: 150 mg bid 5/9 (n=6)) was 2 (33.3) n (%) and the “Pneumonia (treatment-emergent AE)” value (bid 2: 150 mg bid 5/9 (n=6)) was 0 n (%). The “Pyrexia (treatment-emergent AE)” value (bid 2: 150 mg bid 5/9 (n=6)) was 2 (33.3) n (%), the “Rash (treatment-emergent AE)” value (bid 2: 150 mg bid 5/9 (n=6)) was 0 n (%) and the “Thrombocytopenia (treatment-emergent AE)” value (bid 2: 150 mg bid 5/9 (n=6)) was 0 n (%). The “Thrombocytopenia (treatment-related AE)” value (bid 2: 150 mg bid 5/9 (n=6)) was 0 n (%), the “Urinary tract infection (treatment-emergent AE)” value (bid 2: 150 mg bid 5/9 (n=6)) was 1 (16.7) n (%) and the “Vomiting (treatment-emergent AE)” value (bid 2: 150 mg bid 5/9 (n=6)) was 2 (33.3) n (%). For the same molecule, the “Vomiting (treatment-related AE)” value (bid 2: 150 mg bid 5/9 (n=6)) was 2 (33.3) n (%), the “Deaths attributed to disease progression and an SAE of treatment-unrelated grade 5 sepsis, patients” value (cohort qd 3.3) was “one” and the “AEs leading to dose interruptions, patients” value (human, in vivo) was 25 (40.3%) n (%). For the same molecule, the “AEs leading to dose reductions, patients” value (human, in vivo) was 17 (27.4%) n (%), the “AEs leading to treatment discontinuation, patients” value (human, in vivo) was 4 (6.5%) n (%) and the “Abdominal pain (treatment-emergent AE)” value (human, in vivo) was 15 (24.2) n (%). The “Alanine aminotransferase increased” value (human, in vivo) was 8 (12.9) n (%), the “Anemia (treatment-emergent AE)” value (human, in vivo) was 16 (25.8) n (%) and the “Anemia (treatment-related AE)” value (human, in vivo) was 11 (17.7) n (%). For the same molecule, the “Asthenia (treatment-emergent AE)” value (human, in vivo) was 10 (16.1) n (%), the “Back pain (treatment-emergent AE)” value (human, in vivo) was 13 (21.0) n (%) and the “Constipation (treatment-emergent AE)” value (human, in vivo) was 15 (24.2) n (%). For the same molecule, the “Cough (treatment-emergent AE)” value (human, in vivo) was 9 (14.5) n (%), the “Decreased appetite (treatment-emergent AE)” value (human, in vivo) was 14 (22.6) n (%) and the “Decreased appetite (treatment-related AE)” value (human, in vivo) was 11 (17.7) n (%). For the same molecule, the “Dehydration (treatment-related AE)” value (human, in vivo) was 11 (17.7) n (%), the “Dehydration leading to dose interruption, patients” value (human, in vivo) was 4 (6.5%) n (%) and the “Diarrhea leading to dose interruption, patients” value (human, in vivo) was 4 (6.5%) n (%). For the same molecule, the “Dizziness (treatment-emergent AE)” value (human, in vivo) was 14 (22.6) n (%), the “Dyspepsia (treatment-emergent AE)” value (human, in vivo) was 8 (12.9) n (%) and the “Dyspnea (treatment-emergent AE)” value (human, in vivo) was 9 (14.5) n (%). The “Edema peripheral (treatment-emergent AE)” value (human, in vivo) was 16 (25.8) n (%), the “Fall (treatment-emergent AE)” value (human, in vivo) was 9 (14.5) n (%) and the “Fatigue leading to dose interruption, patients” value (human, in vivo) was 4 (6.5%) n (%). For the same molecule, the “Headache (treatment-emergent AE)” value (human, in vivo) was 8 (12.9) n (%), the “Hypokalemia (treatment-emergent AE)” value (human, in vivo) was 11 (17.7) n (%) and the “Muscle spasms (treatment-emergent AE)” value (human, in vivo) was 8 (12.9) n (%). For the same molecule, the “Myalgia (treatment-emergent AE)” value (human, in vivo) was 12 (19.4) n (%), the “Myalgia (treatment-related AE)” value (human, in vivo) was 9 (14.5) n (%) and the “Neutropenia (treatment-emergent AE)” value (human, in vivo) was 10 (16.1) n (%). The “Neutropenia (treatment-related AE)” value (human, in vivo) was 9 (14.5) n (%), the “Neutropenia leading to dose reduction, patients” value (human, in vivo) was 4 (6.5%) n (%) and the “Number of treatment-related serious AEs” value (human, in vivo) was 10. The “Patients with serious AEs” value (human, in vivo) was 25 (40.3%) n (%), the “Pyrexia (treatment-emergent AE)” value (human, in vivo) was 10 (16.1) n (%) and the “Thrombocytopenia (treatment-emergent AE)” value (human, in vivo) was 10 (16.1) n (%). For the same molecule, the “Thrombocytopenia (treatment-related AE)” value (human, in vivo) was 10 (16.1) n (%), the “Thrombocytopenia leading to dose interruption, patients” value (human, in vivo) was 4 (6.5%) n (%) and the “Thrombocytopenia leading to dose reduction, patients” value (human, in vivo) was 5 (8.1%) n (%). The “Treatment-related SAE: anemia” value (human, in vivo) was 1 [1.6%] n [%], the “Treatment-related SAE: dehydration” value (human, in vivo) was 2 [3.2%] n [%] and the “Treatment-related SAE: febrile neutropenia” value (human, in vivo) was 1 [1.6%] n [%]. For the same molecule, the “Urinary tract infection (treatment-emergent AE)” value (human, in vivo) was 9 (14.5) n (%), the “Vomiting (treatment-emergent AE)” value (human, in vivo) was 16 (25.8) n (%) and the “Vomiting (treatment-related AE)” value (human, in vivo) was 14 (22.6) n (%). For the same molecule, the “Number of serious AEs (SAEs) reported” value (in vivo) was “Fifty”, the “Abdominal pain (treatment-emergent AE)” value (qd 1.1: 200 mg qd 5/9 (n=5)) was 1 (20.0) n (%) and the “Abdominal pain (treatment-related AE)” value (qd 1.1: 200 mg qd 5/9 (n=5)) was 0 n (%). For the same molecule, the “Alanine aminotransferase increased” value (qd 1.1: 200 mg qd 5/9 (n=5)) was 2 (40.0) n (%), the “Anemia (treatment-emergent AE)” value (qd 1.1: 200 mg qd 5/9 (n=5)) was 0 n (%) and the “Anemia (treatment-related AE)” value (qd 1.1: 200 mg qd 5/9 (n=5)) was 0 n (%). For the same molecule, the “Any AE (treatment-emergent)” value (qd 1.1: 200 mg qd 5/9 (n=5)) was 5 (100) n (%), the “Any grade ≥ 3 AE” value (qd 1.1: 200 mg qd 5/9 (n=5)) was 1 (20.0) n (%) and the “Any treatment-related AE” value (qd 1.1: 200 mg qd 5/9 (n=5)) was 5 (100) n (%). The “Any treatment-related grade ≥ 3 AE” value (qd 1.1: 200 mg qd 5/9 (n=5)) was 1 (20.0) n (%), the “Asthenia (treatment-emergent AE)” value (qd 1.1: 200 mg qd 5/9 (n=5)) was 2 (40.0) n (%) and the “Asthenia (treatment-related AE)” value (qd 1.1: 200 mg qd 5/9 (n=5)) was 2 (40.0) n (%). For the same molecule, the “Back pain (treatment-emergent AE)” value (qd 1.1: 200 mg qd 5/9 (n=5)) was 0 n (%), the “Constipation (treatment-emergent AE)” value (qd 1.1: 200 mg qd 5/9 (n=5)) was 1 (20.0) n (%) and the “Constipation (treatment-related AE)” value (qd 1.1: 200 mg qd 5/9 (n=5)) was 1 (20.0) n (%). The “Cough (treatment-emergent AE)” value (qd 1.1: 200 mg qd 5/9 (n=5)) was 0 n (%), the “Decreased appetite (treatment-emergent AE)” value (qd 1.1: 200 mg qd 5/9 (n=5)) was 0 n (%) and the “Decreased appetite (treatment-related AE)” value (qd 1.1: 200 mg qd 5/9 (n=5)) was 0 n (%). For the same molecule, the “Dehydration (treatment-emergent AE)” value (qd 1.1: 200 mg qd 5/9 (n=5)) was 0 n (%), the “Dehydration (treatment-related AE)” value (qd 1.1: 200 mg qd 5/9 (n=5)) was 0 n (%) and the “Diarrhea (treatment-emergent AE)” value (qd 1.1: 200 mg qd 5/9 (n=5)) was 1 (20.0) n (%). For the same molecule, the “Diarrhea (treatment-related AE)” value (qd 1.1: 200 mg qd 5/9 (n=5)) was 1 (20.0) n (%).
